Measured values: ChEMBL document CHEMBL3044728, “Synthesis and biological activity of new (E)-alpha-(Methoxyimino)benzeneacetate derivatives containing a substituted pyrazole ring” (2010)

What was measured:
Type in all cases: functional
[1] = tested on: Pseudoperonospora cubensis; experiment: Antifungal activity against Pseudoperonospora cubensis assessed as inhibition at 400 mg/L relative to control
Blumeria graminis [2] = experiment: Antifungal activity against Blumeria graminis assessed as inhibition at 400 mg/L relative to control
Pyricularia oryzae [3] = experiment: Antifungal activity against Magnaporthe oryzae assessed as inhibition at 0.92 mg/L relative to control
Phytophthora infestans [4] = experiment: Antifungal activity against Phytophthora infestans assessed as inhibition at 0.92 mg/L relative to control
[5] = tested on: Pseudoperonospora cubensis; experiment: Antifungal activity against Pseudoperonospora cubensis assessed as inhibition at 25 mg/L relative to control
Blumeria graminis [6] = experiment: Antifungal activity against Blumeria graminis assessed as inhibition at 1.56 mg/L relative to control
Blumeria graminis [7] = experiment: Antifungal activity against Blumeria graminis assessed as inhibition at 6.25 mg/L relative to control
[8] = tested on: Pseudoperonospora cubensis; experiment: Antifungal activity against Pseudoperonospora cubensis assessed as inhibition at 6.25 mg/L relative to control
Leucania = experiment: Insecticidal activity against Leucania venalba at 600 mg/L relative to control
Pyricularia oryzae [9] = experiment: Antifungal activity against Magnaporthe oryzae assessed as inhibition at 25 mg/L relative to control
Phytophthora infestans [10] = experiment: Antifungal activity against Phytophthora infestans assessed as inhibition at 25 mg/L relative to control
Myzus persicae = experiment: Insecticidal activity against Myzus persicae (green peach aphid) at 600 mg/L relative to control
Tetranychus cinnabarinus = experiment: Acaricidal activity against Tetranychus cinnabarinus (carmine spider mite) at 600 mg/L relative to control
Culex pipiens pallens = experiment: Insecticidal activity against Culex pipiens pallens (mosquito) at 600 mg/L relative to control

Compound | inhibition at 400 µg/mL [1] | inhibition at 400 µg/mL (Blumeria graminis [2]) | inhibition at 0.92 µg/mL (Pyricularia oryzae [3]) | inhibition at 0.92 µg/mL (Phytophthora infestans [4]) | inhibition at 25 µg/mL [5] | inhibition at 1.56 µg/mL (Blumeria graminis [6]) | inhibition at 6.25 µg/mL (Blumeria graminis [7]) | inhibition at 6.25 µg/mL [8] | Activity (Leucania) | inhibition at 25 µg/mL (Pyricularia oryzae [9]) | inhibition at 25 µg/mL (Phytophthora infestans [10]) | Activity (Myzus persicae) | Activity (Tetranychus cinnabarinus) | Activity (Culex pipiens pallens)
CNC(=O)/C(=N/OC)c1ccccc1COc1c(C)c(-c2ccc(OC)cc2)nn1C | 98% | 100% | 50% | 50% | 85% | 75% | 100% | 55% | 100% | 100% | 80% |  |  | 
CO/N=C(/C(=O)OC)c1ccccc1COc1cc(-c2ccc(C)cc2C)nn1C | 95% | 100% | 0% | 100% | 90% |  | 65% | 65% |  | 100% | 100% | 100% |  | 
CNC(=O)/C(=N/OC)c1ccccc1COc1cc(-c2ccccc2OC)nn1C | 75% | 100% | 0% |  | 10% | 45% | 100% |  |  | 100% | 0% | 100% |  | 
CNC(=O)/C(=N/OC)c1ccccc1COc1c(C)c(-c2cc(C)ccc2C)nn1C | 100% | 100% | 100% | 100% | 100% | 0% | 40% | 50% |  | 100% | 100% | 100% |  | 
CCOc1ccc(-c2nn(C)c(OCc3ccccc3/C(=N\OC)C(=O)OC)c2C)cc1 | 100% | 100% | 50% | 50% | 40% | 50% | 100% |  |  | 100% | 100% |  | 100% | 
CNC(=O)/C(=N/OC)c1ccccc1COc1cc(-c2ccc(C)c(C)c2)nn1C | 100% | 100% | 50% | 80% | 100% | 40% | 100% | 85% |  | 100% | 100% | 100% | 100% | 
CNC(=O)/C(=N/OC)c1ccccc1COc1cc(-c2ccc(Cl)cc2)nn1C | 100% | 100% |  |  | 100% | 0% | 40% | 60% |  | 0% |  | 100% |  | 100%
CO/N=C(/C(=O)OC)c1ccccc1COc1c(C)c(-c2cc(C)ccc2C)nn1C | 100% | 100% | 100% | 60% | 80% | 20% | 40% | 40% | 100% | 100% | 100% | 100% |  | 
CO/N=C(/C(=O)OC)c1ccccc1COc1cc(-c2ccc(C)c(C)c2)nn1C | 98% | 100% | 50% | 80% | 40% |  | 30% |  |  | 100% | 100% | 100% | 100% | 
CO/N=C(/C(=O)OC)c1ccccc1COc1cc(-c2ccc(Cl)cc2)nn1C | 100% | 100% |  | 50% | 90% |  | 40% | 80% |  | 80% | 80% |  |  | 100%
